Results taken from ChEMBL document CHEMBL2380296, “Structure-based design and optimization of 2-aminothiazole-4-carboxamide as a new class of CHK1 inhibitors” (Bioorg Med Chem Lett, 2013).
pEC50, pIC50: −log10 of the molar value.

Legend:
[1] = target: T1, Serine/threonine-protein kinase Chk1 (Homo sapiens, UniProt O14757); experiment: Inhibition of CHK1 in human U2OS cells assessed as phosphorylation of H2AX after 2 hrs by FITC/propidium iodide staining-based immunofluorescence assay in presence of hydroxyurea; assay type: cell-based
T1 sequence (O14757 whole entry): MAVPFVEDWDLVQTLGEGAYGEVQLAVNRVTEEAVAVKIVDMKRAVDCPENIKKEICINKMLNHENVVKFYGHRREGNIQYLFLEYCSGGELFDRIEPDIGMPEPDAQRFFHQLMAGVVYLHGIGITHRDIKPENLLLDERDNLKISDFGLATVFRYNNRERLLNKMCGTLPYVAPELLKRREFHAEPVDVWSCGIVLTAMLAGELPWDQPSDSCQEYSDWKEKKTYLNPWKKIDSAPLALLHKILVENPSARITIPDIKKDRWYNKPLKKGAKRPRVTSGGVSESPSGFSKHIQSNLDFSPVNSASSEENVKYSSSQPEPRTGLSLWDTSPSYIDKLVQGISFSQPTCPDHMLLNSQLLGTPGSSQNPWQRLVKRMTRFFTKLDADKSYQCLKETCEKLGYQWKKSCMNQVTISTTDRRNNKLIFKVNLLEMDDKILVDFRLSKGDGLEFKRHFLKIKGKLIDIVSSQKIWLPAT

[2] = target: T1, Serine/threonine-protein kinase Chk1

pEC50 [1] | pIC50 [2] | Compound
5.12 | 7.85 | O=C(Nc1ccccc1N1CCNCC1)c1csc(Nc2cc(-c3ccccc3)n[nH]2)n1
– | 6.72 | O=C(Nc1ccccc1N1CCNCC1)c1csc(N2Cc3ccncc3C2)n1
– | 6.96 | O=C(Nc1ccccc1N1CCNCC1)c1csc(-n2nnc3ccccc32)n1
6.00 | 8.00 | COc1ccc2c(c1)C(=O)N(c1nc(C(=O)Nc3cnc(C)cc3N3CCNCC3)cs1)C2
7.40 | 8.52 | O=C(Nc1cnccc1N1CCNCC1)c1csc(Nc2n[nH]c3ccccc23)n1
6.05 | 8.10 | O=C(Nc1cnccc1N1CCNCC1)c1csc(N2Cc3ccccc3C2)n1
– | 7.26 | O=C(Nc1cnccc1N1CCNCC1)c1csc(-c2ccc3c(c2)CCO3)n1
– | 5.00 | O=C(Nc1ccccc1N1CCNCC1)c1csc(-n2ccnc2)n1
– | 7.34 | COc1ccc2c(c1)C(=O)N(c1nc(C(=O)Nc3cncnc3N3CCNCC3)cs1)C2
– | 6.62 | CN(c1ccccc1)c1nc(C(=O)Nc2ccccc2N2CCNCC2)cs1
– | 5.28 | COc1ccc2c(c1)C(=O)N(c1nc(C(=O)Nc3cnc4ccccc4c3N3CCNCC3)cs1)C2
6.60 | 8.30 | COc1ccc2c(c1)C(=O)N(c1nc(C(=O)Nc3ccccc3N3CCNCC3)cs1)C2
– | 7.41 | O=C(Nc1ccccc1N1CCNCC1)c1csc(N2CCc3sccc3C2)n1
– | 5.89 | O=C(Nc1ccccc1N1CCNCC1)c1csc(N2CCc3c(F)ccc(F)c3C2)n1
5.22 | 8.40 | COc1ccc2c(c1)C(=O)N(c1nc(C(=O)Nc3cc(F)ccc3N3CCNCC3)cs1)C2
– | 6.06 | O=C(Nc1cccnc1N1CCNCC1)c1csc(-c2ccc3c(c2)CCO3)n1
– | 5.24 | Cc1ncc2c(n1)CN(c1nc(C(=O)Nc3ccccc3N3CCNCC3)cs1)C2
– | 7.21 | O=C(Nc1ccccc1N1CCNCC1)c1csc(N2Cc3cn[nH]c3C2)n1
– | 6.92 | O=C(Nc1ccccc1N1CCNCC1)c1csc(-n2cccn2)n1
– | 6.64 | O=C(Nc1ccncc1N1CCNCC1)c1csc(-c2ccc3c(c2)CCO3)n1
– | 6.01 | COc1ccc(-c2cc(N)n(-c3nc(C(=O)Nc4ccccc4N4CCNCC4)cs3)n2)cc1
6.12 | 8.70 | O=C(Nc1ccccc1N1CCNCC1)c1csc(-n2ncc3ccccc32)n1

pEC50 [1] | pIC50 [2] | Compound
6.00 | 8.00 | O=C(Nc1cnccc1N1CCNCC1)c1csc(-c2ccc3[nH]ccc3c2)n1
5.90 | 8.15 | O=C(Nc1cnccc1N1CCNCC1)c1csc(-c2ccc3sccc3c2)n1
– | 5.40 | O=C(Nc1ccccc1N1CCNCC1)c1csc(N2CCc3[nH]cnc3C2)n1
– | 6.55 | COc1ccc2c(c1)C(=O)N(c1nc(C(=O)Nc3ccnnc3N3CCNCC3)cs1)C2
– | 7.04 | O=C(Nc1ccccc1N1CCNCC1)c1csc(Nc2ccccc2)n1
– | 7.54 | COc1cc2c(cc1OC)CN(c1nc(C(=O)Nc3ccccc3N3CCNCC3)cs1)CC2
5.43 | 8.52 | COc1ccc(-c2cc(Nc3nc(C(=O)Nc4ccccc4N4CCNCC4)cs3)[nH]n2)cc1
7.00 | 8.70 | O=C(Nc1cnccc1N1CCNCC1)c1csc(N2Cc3ccccc3C2=O)n1
– | 6.37 | O=C(Nc1cnccc1N1CCNCC1)c1csc(-c2ccc(Oc3ccccc3)cc2)n1
– | 4.96 | O=C(Nc1ccccc1N1CCNCC1)c1csc(NCc2ccccc2)n1
– | 5.35 | Cn1nc(-c2ccccc2)cc1Nc1nc(C(=O)Nc2ccccc2N2CCNCC2)cs1
– | 5.33 | O=C(Nc1ncccc1N1CCNCC1)c1csc(-c2ccc3c(c2)CCO3)n1
– | 7.42 | O=C(Nc1ccccc1N1CCNCC1)c1csc(N2CCCc3ccccc32)n1
7.12 | 8.52 | O=C(Nc1cnccc1N1CCNCC1)c1csc(-n2ncc3ccccc32)n1
– | 7.42 | O=C(Nc1ccccc1N1CCNCC1)c1csc(N2CCc3ccccc3C2)n1
6.00 | 8.52 | O=C(Nc1cnccc1N1CCNCC1)c1csc(-c2cc3ccccc3s2)n1
6.46 | 8.70 | O=C(Nc1ccccc1N1CCNCC1)c1csc(Nc2n[nH]c3ccccc23)n1
– | < 4.30 | CN(Cc1ccccc1)c1nc(C(=O)Nc2ccccc2N2CCNCC2)cs1
– | 5.16 | O=C(Nc1ccccc1N1CCNCC1)c1csc(NC2Cc3ccccc3C2)n1
– | 7.55 | O=C(Nc1cnccc1N1CCNCC1)c1csc(-c2ccc3occc3c2)n1
5.85 | 8.10 | O=C(Nc1ccccc1N1CCNCC1)c1csc(N2Cc3ccccc3C2)n1
– | 6.55 | Cc1nc2c(s1)CN(c1nc(C(=O)Nc3ccccc3N3CCNCC3)cs1)C2
